Square brackets hold non-standard residues; d marks the D form. Peptide text beside a SMILES is read from it. * marks the point of attachment. X1 = C(=Cc1ccccc1)CN1CCN(*)CC1
Experiments:
Assay type in all cases: cell-based
[1] = system: Colo205 (intestinal cancer) cells; test: Inhibition of cell migration (transwell insert), Colo205; settings: Colo205, IC50 concentration, concentrations below 400 μM
Experimental: (§1) Inhibition of cell migration was evaluated using 24-well plates with PET (polyethylene terephthalate) membrane transwell insert. The experiment was performed using IC50 concentrations of the tested compounds, and migration of the cells, that means, the number of the cells passing through the membrane to the bottom side of the membrane, was observed. The cells which passed the membrane, were stained with crystal violet and counted.

[2] = system: HT29 (intestinal cancer) cells; test: Inhibition of cell migration (transwell insert), HT29; settings: HT29, IC50 concentration, concentrations below 400 μM
Experimental: as §1

[3] = system: SW480 (intestinal cancer) cells; test: Inhibition of cell migration (transwell insert), SW480; settings: SW480, IC50 concentration
Experimental: as §1

[4] = system: SW620 (intestinal cancer); test: Cell growth, colorimetric MTT or XTT, SW620
Experimental: (§2) Influence of the compounds on the cell growth was evaluated by colorimetric method, using MTT or XTT reagent, values of IC50 were determined. The tests were based on reduction of the salt by mitochondrial dehydrogenase from metabolically active cells. The colored product of the reaction was determined colorimetrically, and in result the number of living cells was assigned.

[5] = system: SW620 (intestinal cancer) cells; test: Inhibition of cell migration (transwell insert), SW620; settings: SW620, IC50 concentration
Experimental: as §1

[6] = system: human pancreatic cancer cell line CFPAC-1; test: MTS cell viability test on CFPAC-1 cells; settings: 24 h incubation; for activity (cell viability) compared with gem and 5FU: CFPAC-1, concentrations 0.01-0.1 mM; for activity relative to the reference drugs (gem, 5FU): CFPAC-1, higher concentrations (above 0.1 mM)
Text: Phenylalanyl-trans-1-cinnamylpiperazine was acylated with t-Boc-Tyr-D-Ala using TBTU/DIPEA methodology. The reaction product was precipitated with 10% NaHCO3 and separated from the reaction mixture by filtration. The solid was washed three times with water, until neutral pH of the filtrate was reached. The t-butyloxycarbonyl group was removed using TFA:DCM (1:1). The crude product was purified by preparative HPLC in a gradient of water/methanol with addition of 0.1% trifluoroacetic acid. The counterion was changed to Cl^− using the Dowex ion-exchange resin. The purified product, tyrosyl-D-alanyl-phenylalanyl-cinnamylpiperazine hydrochloride (further called TyrDAlaPheCyn) was tested on human pancreatic cancer cell line CFPAC-1, in comparison to commercial drugs, gemcitabine (gem) and 5-fluorouracil (5FU). The cells were grown on IMDM medium supplemented with 10% (v/v h.i. FBS, 2 mM L-glutamine and 1% (v/v) penicillin-streptomycin, in 37° C., in humidified atmosphere, with 5% CO2. The cells were seeded in 96 wells plate (3×10^3 cells per well) and incubated for 24 h (37° C., 5% CO2) in the culture medium. Next, TyrDAlaPheCyn, gem and 5FU in 5% DMSO solutions were added, to give in wells concentrations 0 (5% DMSO); 0.01; 0.05; 0.1; 0.5; and 1 mM. The plates were incubated for 24 h (37° C., 5% CO2). Cell viability was determined using colorimetric test MTS (3-(4,5-dimethylthiazol-2-yl)-5-(3-carboxymethoxyphenyl)-2-(4-sulfophenyl)-2H-tetrazolium). To each well, 20 μl of the reagent was added, and the plates were incubated in the same conditions for 1 h. The absorbance intensity at 490 nm was read. […] However, at higher concentrations, activity of the tested compound was even 4 times higher than for the reference drugs.
Tryptophyl-trans-1-cinnamylpiperazine was acylated with t-Boc-Tyr-D-Ala using TBTU/DIPEA methodology. The reaction product was precipitated with 10% NaHCO3 and separated from the reaction mixture by filtration. The solid was washed three times with water, until neutral pH of the filtrate was reached. The t-butyloxycarbonyl group was removed using TFA:DCM (1:1). […] The cells were grown on DMDM medium supplemented with 10% (v/v h.i. FBS, 2 mM L-glutamine and 1% (v/v) penicillin-streptomycin, in 37° C., in humidified atmosphere, with 5% CO2. The cells were seeded in 96 wells plate (3×10^3 cells per well) and incubated for 24 h (37° C., 5% CO2) in the culture medium. Next, TyrDAlaTrpCyn, gem and 5FU in 5% DMSO solutions were added, to assure in wells concentrations 0 (5% DMSO); 0.01; 0.05; 0.1; 0.5; and 1 mM. The plates were incubated for 24 h (37° C., 5% CO2). Cell viability was determined using colorimetric test MTS (3-(4,5-dimethylthiazol-2-yl)-5-(3-carboxymethoxyphenyl)-2-(4-sulfophenyl)-2H-tetrazolium). […] The absorbance intensity at 490 nm was read. […]

HT29 (intestinal cancer) = test: Cell growth, colorimetric MTT or XTT, HT29
Experimental: as §2

[7] = system: Colo205 (intestinal cancer); test: Cell growth, colorimetric MTT or XTT, Colo205
Experimental: as §2

Compound | inhibition of cell migration [1] [%] | inhibition of cell migration [2] [%] | inhibition of cell migration ([3]; concentrations below 400 μM) [%] | IC50 [4] [µM] | activity (cell viability) compared with gem and 5FU [6] | activity relative to the reference drugs (gem, 5FU) [6] [times] | further results
C[C@@H](NC(=O)[C@@H](N)Cc1ccc(O)cc1)C(=O)NCC(=O)N[C@@H](Cc1ccccc1)C(=O)N1CCN(CC=Cc2ccccc2)CC1.Cl [TyrDAlaGlyPheCyn, tyrosyl-D-alanyl-glicyl-phenylalanyl-1-cinnamylpiperazine hydrochloride] | ≤ 60 | ≤ 70 | ≤ 60 | < 450 | – | – | inhibition of cell migration ([5]; concentrations below 450 μM): ≤ 40%
C[C@@H](NC(=O)[C@@H](N)Cc1ccc(O)cc1)C(=O)NCC(=O)N[C@@H](Cc1c[nH]c2ccccc12)C(=O)N1CCN(CC=Cc2ccccc2)CC1.Cl [TyrDAlaGlyTrpCyn, tyrosyl-D-alanyl-glicyl-tryptophyl-1-cinnamylpiperazine hydrochloride] (H-Y[dA]GW-X1) | ≤ 40 | ≤ 50 | ≤ 30 | < 500 | – | – | inhibition of cell migration ([5]; concentrations below 500 μM): ≤ 30%
C[C@@H](NC(=O)[C@@H](N)Cc1ccc(O)cc1)C(=O)N[C@@H](Cc1ccccc1)C(=O)N1CCN(CC=Cc2ccccc2)CC1.Cl [TyrDAlaPheCyn, tyrosyl-D-alanyl-phenylalanyl-cinnamylpiperazine hydrochloride] | – | – | – | – | similar | 4 | –
C[C@@H](NC(=O)[C@@H](N)Cc1ccc(O)cc1)C(=O)N[C@@H](Cc1c[nH]c2ccccc12)C(=O)N1CCN(CC=Cc2ccccc2)CC1.Cl [TyrDAlaTrpCyn, tyrosyl-D-alanyl-tryptophyl-cinnamylpiperazine hydrochloride] | – | – | – | – | similar | 4 | –
C[C@H](O)[C@@H](NC(=O)[C@@H](N)Cc1ccc(O)cc1)C(=O)NCC(=O)N[C@@H](Cc1ccccc1)C(=O)N1CCN(CC=Cc2ccccc2)CC1.Cl [TyrDThrGlyPheCyn, tyrosyl-D-threonyl-glicyl-phenylalanyl-1-cinnamylpiperazine hydrochloride] (H-Y[dT]GF-X1) | – | – | – | < 650 | – | – | inhibition of cell migration ([3]; concentrations below 500 μM): ≤ 45%
C[C@H](O)[C@@H](NC(=O)[C@@H](N)Cc1ccc(O)cc1)C(=O)NCC(=O)N[C@@H](Cc1c[nH]c2ccccc12)C(=O)N1CCN(CC=Cc2ccccc2)CC1.Cl [TyrDThrGlyTrpCyn, tyrosyl-D-threonyl-glicyl-tryptophyl-1-cinnamylpiperazine hydrochloride] (H-Y[dT]GW-X1) | – | – | – | < 600 | – | – | inhibition of cell migration ([3]; concentrations below 600 μM): ≤ 40%; IC50 (HT29 (intestinal cancer)): < 600 µM; inhibition of cell migration ([5]; concentrations below 600 μM): ≤ 30%; IC50 [7]: < 650 µM

Reference: patent US20190375787A1, “PEPTIDOMIMETICS AND THEIR USE IN THERAPY” (INSTYTUT […]. Z O.O., priority 2016, published 2019)
